Experiments:
[1] = biological target: T1, Aβ(1-40) (Homo sapiens, UniProt P05067); test: In vitro Aβ(1-40) aggregation kinetics, ThT fluorescent labeling method; type: biochemical; details: 20 μM Aβ(1-40); L-NIBC 1.0 and 10.0 ppm; gold nanoparticles up to 20.0 ppm
T1 construct: Freeze-dried powder of amyloid polypeptide Aβ(1-40) (Invitrogen Corp.); purchased Invitrogen Corp
Excerpt: As described above, Aβ plays an important role in the pathogenesis of glaucoma and is an important target for treatment of glaucoma based on the optic nerve protection mechanism. […] Moreover, the function is from AuCs other than ligand. […] Thioflavin T (abbreviation: ThT) is a dye specifically for dyeing amyloid fibers. […] When it encounters amyloid polypeptides or proteins with a fiber structure, it will immediately couple with the amyloid polypeptides or proteins and its fluorescence intensity will increase exponentially. Just because of this property, ThT is widely used as a marker to monitor amyloidosis of peptides or proteins. The fibrosis process of Aβ(1-40) is also a nucleation-controlled polymerization process. Therefore, the growth curve of Aβ(1-40) fiber measured by ThT fluorescent labeling method is mainly divided into three stages: Initial stage, growth stage and platform stage. The initial stage is mainly a stage when Aβ(1-40) undergoes conformational transition to form misfolding and then aggregates and nucleates. […] All the Aβ(1-40) PBS solutions for the experiments were prepared freshly. […] The samples were incubated continuously in a 96-well plate at 37° C. by ThT fluorescent labeling method, and monitored the fluorescence intensity by microplate reader once every 10 minutes.

[2] = biological target: T1, Aβ(1-40); test: AFM topography of Aβ(1-40) after 48 h co-incubation; type: biochemical; details: co-incubated for 48 h
Experimental: Panel A is the AFM topography after Aβ(1-40) was incubated alone for 48 h. Panel B is an AFM topography after Aβ(1-40) was coincubated with L-NIBC for 48 h. Panel C and panel D are AFM topographies after Aβ(1-40) was coincubated with gold nanoparticles with an average particle size of 6.0 nm and 3.6 nm respectively (modified with L-NIBC) for 48 h. And panel E is an AFM topography after Aβ(1-40) was coincubated with AuCs in an average particle size of 1.8 nm (modified with L-NIBC) for 48 h.

[3] = system: RGC-5 cells; test: H2O2-induced RGC-5 cell oxidative stress injury model, CCK-8 cell viability; type: cell-based
Experimental: (§1) The cell viability was used as an index in the experiment of this embodiment.
RGC-5 cells in logarithmic growth phase were diluted with complete medium (MEM+10% FBS+1% penicillin-streptomycin) to get a cell suspension in a density of 5×10^4/mL. The suspension was inoculated 100 μL per well into a 96-well plate, and cultivated in an incubator with 5% CO2 at 37° C. One of administration ways in an experiment group is: The original culture medium was removed when the cells attached to the wells, and 50 μL test substances (the test substances were: three kinds of L-NIBC-modified AuCs in particle sizes of 2.6 nm, 1.8 nm or 1.1 nm, or four kinds of L-NIBC-modified gold nanoparticles in particle sizes of 18.2 nm, 10.1 nm, 6.0 nm or 3.6 nm, or L-NIBC molecules not bonded with AuCs or gold nanoparticles as reference) solutions at different concentrations prepared by maintenance medium (DMEM medium+2% FBS+1% penicillin-streptomycin) were added to different wells to make the final concentration be 0.01, 0.05, 0.1, 0.5, 1, 5 and 10 ppm respectively, then 50 μL of H2O2 (the final concentration was 100 μM) was added to the administration group and model group after 2 hours' pretreatment. The cells were incubated for 24 h, then 10% CCK-8 was added to each well and incubated for 4 h. […]

[4] = system: RGC-5 cells; test: NMDA-induced RGC-5 cell excitotoxicity model, CCK-8; type: cell-based; details: 250 μM NMDA, 0.01-10 ppm
Experimental: This embodiment used cell survival rate as an index.
RGC-5 cells in logarithmic growth phase were diluted with complete medium to get a cell suspension in a density of 5×10^4/mL. The suspension was inoculated 100 μL per well into a 96-well plate, and cultivated in an incubator with 5% CO2 at 37° C. One of administration ways in an experiment group is: The original culture medium was removed when the cells attached to the wells, and 50 μL test substances (the test substances were: three kinds of L-NIBC-modified AuCs in particle sizes of 2.6 nm, 1.8 nm or 1.1 nm, or four kinds of L-NIBC-modified gold nanoparticles in particle sizes of 18.2 nm, 10.1 nm, 6.0 nm or 3.6 nm, or L-NIBC molecules not bonded with AuCs or gold nanoparticles as reference) solutions at different concentrations prepared by maintenance medium were added to different wells to make the final concentration be 0.01, 0.05, 0.1, 0.5, 1, 5 and 10 ppm respectively, then 50 μL of NMDA (the final concentration was 250 μM) was added to the administration group and model group after 2 hours' pretreatment. […] The absorbance value of each well at 450 nm wave length was measured to evaluate the pre-protective effect of AuCs on NMDA injury. […] The absorbance value of each well at 450 nm wave length was measured to evaluate the curative effect of AuCs on NMDA injury. […]

[5] = system: RGC-5 cells; test: Sodium nitroprusside (SNP)-induced RGC-5 apoptosis model, CCK-8 cell viability; type: cell-based
Experimental: as §1
RGC-5 cells in logarithmic growth phase were diluted with complete medium to get a cell suspension in a density of 5×10^4/mL. The suspension was inoculated 100 μL per well into a 96-well plate, and cultivated in an incubator with 5% CO2 at 37° C. […] The absorbance value of each well at 450 nm wave length was measured to evaluate the pre-protective effect of AuCs on SNP injury. […] The absorbance value of each well at 450 nm wave length was measured to evaluate the curative effect of AuCs on SNP injury. […]
RGC-5 cells in logarithmic growth phase were diluted with complete medium to get a cell suspension in a density of 5×10^4/mL. […] The absorbance value of each well at 450 nm wave length was measured to evaluate the pre-protective effect of AuCs on SNP injury. […]

T1 sequence (P05067 672-711 limits assumed): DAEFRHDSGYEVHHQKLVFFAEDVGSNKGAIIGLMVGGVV

With CC(C)C(=O)N[C@@H](CS)C(=O)O [L-NIBC, N-isobutyryl-L-cysteine] the “effect on Aβ(1-40) amyloidosis kinetics” value [1] was “no obvious effect on Aβ(1-40) amyloidosis kinetics”, the “Aβ(1-40) fibers in AFM topography” value [2] was “no obvious effect on the formation of Aβ(1-40) fibers” and the “effect on cell viability / RGC apoptosis triggered by oxidative stress” value ([3]; H2O2-injured RGC cell model, CCK-8) was “did not have an obvious effect”. The viability at 10 ppm ([3]; RGC5, 10 ppm, H2O2, 24 h, read-out: cell viability relative to the blank control group (set to be 100%)) was 47.5 ± 6.6%, the “effect on cell viability / neurotransmitter mediated excitatory RGC apoptosis” value [4] was “did not have an obvious effect” and the viability at 10 ppm ([5]; RGC5, 10 ppm, 700 μM SNP, 24 h, read-out: cell viability relative to the blank control group (set to be 100%)) was 52.8 ± 8%. For the same compound, the “effect on cell viability / SNP-induced RGC apoptosis” value ([5]; SNP-injured RGC cell model, CCK-8) was “did not have an obvious protective effect”.
